The record followed here is patent US5324648A, “Substituted isocoumarins as serine protease inhibitors and anti-inflammatory agents” (Georgia Tech Research Corporation, priority 1992, dated 1994).

Each structure is given as a SMILES string. Like-named read-outs stand apart in the source and are kept apart here.

For one assay, the target named is chymotrypsin (Bos taurus, UniProt P00766). The experiment in a line: Inactivation of chymotrypsin. The assay is classed as biochemical, bovine.
Assay [1] concerns the target T1, human leukocyte elastase (HLE) (Homo sapiens, UniProt P08246).
T1 construct: from tissue; host or cells: human leukocytes (from the name)
T1 sequence (P08246 30-267): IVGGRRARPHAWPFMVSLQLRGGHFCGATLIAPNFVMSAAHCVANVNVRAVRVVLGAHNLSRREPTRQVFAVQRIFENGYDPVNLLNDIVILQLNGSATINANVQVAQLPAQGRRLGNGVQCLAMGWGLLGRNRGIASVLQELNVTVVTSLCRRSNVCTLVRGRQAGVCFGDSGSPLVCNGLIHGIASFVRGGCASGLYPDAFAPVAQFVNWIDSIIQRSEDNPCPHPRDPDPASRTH
The experiment in a line: Inactivation of human leukocyte elastase (HLE). Type of assay: biochemical. As to conditions: for kinact/KI: read-out: kobs/[I].

The target in assay [2] is T2, porcine pancreatic elastase (PPE) (Sus scrofa, UniProt P00772).
T2 construct: from tissue; host or cells: porcine pancreas (from the name)
The experiment in a line: Inactivation of porcine pancreatic elastase (PPE). The assay is classed as biochemical. The note with it: for kinact/KI: read-out: kobs/[I].

The target of a further assay is T3, cathepsin G (Homo sapiens, UniProt P08311).
T3 construct: from tissue; host or cells: human leukocytes
T3 sequence (P08311 21-255): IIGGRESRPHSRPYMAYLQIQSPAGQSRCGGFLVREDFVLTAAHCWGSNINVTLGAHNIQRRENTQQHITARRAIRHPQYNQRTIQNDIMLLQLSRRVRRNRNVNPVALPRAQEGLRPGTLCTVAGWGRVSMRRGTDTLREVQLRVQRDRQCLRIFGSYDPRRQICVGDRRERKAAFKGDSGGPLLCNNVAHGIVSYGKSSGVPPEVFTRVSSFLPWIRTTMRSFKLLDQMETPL
The assay is described as follows: Inactivation of cathepsin G. Also noted: percentage of inhibition: concentration or dose not given beside the values. The assay is classed as biochemical. As to conditions: for percentage of inhibition: after 5 min incubation; for kinact/KI: read-out: kobs/[I].

Where [3] appears, read: Table XVI, pH 7.5, 25° C, [I] 0.07-710 μM.
[4] abbreviates: Table XVI, pH 7.5, 25° C, [I] 0.04-2.0 mM.
Setting [5] is: Table XVI, pH 7.5, 25° C, [I] 35-710 μM.
The mark [6] stands for this setting: Table XVI, pH 7.5, 25° C, [I] 1.7-58 μM, read-out: kobs/[I].
The mark [7] stands for this setting: pH 7.5, Table XVI, biphasic plot, read-out: kobs/[I] (biphasic, first value).
Where [8] appears, read: pH 7.5, Table XVI, biphasic plot, read-out: kobs/[I] (biphasic, second value).
The mark [9] stands for this setting: pH 7.5, Table XVI, second order, equimolar inhibitor and enzyme.
Where [10] appears, read: pH 7.5, Table XII, 2.5% Me2SO, 25° C, [I] 3.4-70 μM, read-out: kobs/[I].
Setting [11] is: pH 7.5, Table XII, 2.5% Me2SO, 25° C, [I] 0.7-1.9 μM.
Setting [12] is: pH 7.5, Table XII, 2.5% Me2SO, 25° C, [I] 34-56 μM.
The mark [13] stands for this setting: pH 7.5, Table XII, 2.5% Me2SO, 25° C, [I] 8.7-87 μM.

T2 sequence (P00772 27-266): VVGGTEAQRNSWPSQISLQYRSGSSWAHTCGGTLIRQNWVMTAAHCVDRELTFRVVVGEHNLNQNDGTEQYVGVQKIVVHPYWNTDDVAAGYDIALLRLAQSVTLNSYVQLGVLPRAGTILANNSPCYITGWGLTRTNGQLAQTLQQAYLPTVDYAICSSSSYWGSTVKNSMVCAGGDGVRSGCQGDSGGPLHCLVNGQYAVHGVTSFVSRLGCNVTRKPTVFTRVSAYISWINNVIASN
Description for cathepsin G: Inactivation rates of serine proteases by substituted isocoumarins were measured by the incubation method. An aliquot of inhibitor (25 or 50 μl) in Me2 SO was added to a buffered enzyme solution (0.01-2.3 μM) to initiate the inactivation. Aliquots (50 μl) were withdrawn at various intervals and the residual enzymatic activity was measured. Me2 SO concentration in the reaction mixture was 8-12% (v/v). 0.1 Hepes, 0.01M CaCl2, pH 7.5 buffer was utilized for trypsin and coagulation enzymes. 0.1M Hepes, 0.5M NaCl, pH 7.5 was utilized for other serine proteases. […] Peptide thioesters or peptide nitroanilides with appropriate sequence were used as substrates for various serine proteases. All peptide thioester hydrolysis rates were measured with assay mixtures containing 4,4'-dithiodipyridine (ε324 =19800M^-1 cm^-1 ; Grasetti & Murray, Arch. Biochem. Biophys. 119, pp 41-49 (1967)). Peptide 4-nitroanilide nitroanilide hydrolysis was measured at 410 nm (ε410 =8800M^-1 cm^-1 ; Erlanger et al., Arch. Biochem. Biophys. 95, pp 271-278 (1961)). First order inactivation rate constant (kobs) were obtained from plots of ln (vt /vo) vs time, and the correlation coefficients were greater than 0.98.
^a Inactivation rates were measured at 0.1M Hepes, 0.5 NaCl, pH 7.5,
8-12% Me2 SO and 25° C. by incubation method.
and assayed for remaining activity.
^a Inhibition rates were measured in 0.1M Hepes, 0.05M NaCl, pH 7.5
buffer, 8-9% Me2 SO and at 25° C.
Me2 SO, pH 7,5 and at 25° C.
^a Inhibition was measured in 0.1M Hepes, 0.5M NaCl, pH 7.5 buffer,
5-10% Me2 SO and at 25° C. Suc--Val--Pro--Phe--NA (0.48 mM)
was used as the substrate for chymotrypsin and cat G.

With `CCCOCCOc1oc(=O)c2cc(N)ccc2c1Cl`, the “kobs/[I]” value turned out to be 140 M⁻¹ s⁻¹ at chymotrypsin (Table XVI, pH 7.5, 25° C, [I] 1.7-58 μM); 33 M⁻¹ s⁻¹ in assay [1] (setting [3]); 0.5 M⁻¹ s⁻¹ in assay [2] (setting [4]); 2.6 M⁻¹ s⁻¹ on cathepsin G (setting [5]).
In the case of `CC(C)(C)OC(=O)N[C@H](Cc1ccccc1)C(=O)Nc1ccc2c(Cl)c(OCCBr)oc(=O)c2c1` [7-(N-t-butyloxycarbonyl-D-phenylalanyl)amino-4-chloro-3-(2-bromoethoxy)isocoumarin], the kinact/KI at chymotrypsin (setting [6]) turned out to be 150 M⁻¹ s⁻¹; in assay [2] (setting [4]) it was 30 M⁻¹ s⁻¹. The same compound returned a percentage of inhibition on cathepsin G (Table XVI) of 19%.
For the compound `C[C@H](NC(=O)OC(C)(C)C)C(=O)N[C@@H](C)C(=O)Nc1ccc2c(Cl)c(OCCBr)oc(=O)c2c1` [7-(N-t-butyloxycarbonyl-L-alanylalanyl)amino-4-chloro-3-(2-bromoethoxy)isocoumarin], the kinact/KI turned out to be 2750 M⁻¹ s⁻¹ on chymotrypsin (setting [7]); 810 M⁻¹ s⁻¹ at chymotrypsin (setting [8]); 230000 M⁻¹ s⁻¹ in assay [1] (setting [9]); 1670 M⁻¹ s⁻¹ in assay [2] (setting [4]); 46 M⁻¹ s⁻¹ on cathepsin G (setting [5]).
As for `CC(C)(C)OC(=O)N[C@@H](Cc1ccccc1)C(=O)Nc1ccc2c(Cl)c(OCCBr)oc(=O)c2c1` [7-(N-t-butyloxycarbonyl-L-phenylalanyl)amino-4-chloro-3-(2-bromoethoxy)isocoumarin], the values for the kinact/KI (on chymotrypsin (setting [6]); in assay [2] (setting [4])) were 400 M⁻¹ s⁻¹ and 50 M⁻¹ s⁻¹, respectively. The compound also gave a percentage of inhibition on cathepsin G (Table XVI) of 19%.
Turning to `C[C@@H](NC(=O)Nc1ccc2c(Cl)c(OCCBr)oc(=O)c2c1)c1ccccc1` [7-(R-α-methylbenzyl)carbamoylamino-4-chloro-3-(2-bromoethoxy)isocoumarin], the kinact/KI on chymotrypsin (setting [7]) was 180 M⁻¹ s⁻¹; at chymotrypsin (setting [8]) it was 90 M⁻¹ s⁻¹; in assay [1] (setting [9]), above 440000 M⁻¹ s⁻¹; in assay [2] (setting [4]) it was 9900 M⁻¹ s⁻¹; at cathepsin G (setting [5]), 77 M⁻¹ s⁻¹.
As to `C[C@H](NC(=O)Nc1ccc2c(Cl)c(OCCBr)oc(=O)c2c1)c1ccccc1` [7-(S-α-methylbenzyl)carbamoylamino-4-chloro-3-(2-bromoethoxy)isocoumarin], the figures for the kinact/KI (on chymotrypsin (setting [6]); in assay [1] (setting [9]); in assay [2] (setting [4])) were 440 M⁻¹ s⁻¹, above 570000 M⁻¹ s⁻¹ and 2660 M⁻¹ s⁻¹, respectively. Also, at cathepsin G (Table XVI), the percentage of inhibition came to 21%.
`O=C(O)c1cccc(NC(=S)Nc2ccc3c(Cl)c(OCCBr)oc(=O)c3c2)c1` [7-(m-carboxyphenyl)thiocarbamoylamino-4-chloro-3-(2-bromoethoxy)isocoumarin]: the kinact/KI at chymotrypsin (setting [6]) was 1960 M⁻¹ s⁻¹; in assay [1] (setting [9]), above 240000 M⁻¹ s⁻¹; at cathepsin G (setting [5]), 320 M⁻¹ s⁻¹.
For `O=C(O)c1ccc(NC(=S)Nc2ccc3c(Cl)c(OCCBr)oc(=O)c3c2)cc1` [7-(p-carboxyphenyl)thiocarbamoylamino-4-chloro-3-(2-bromoethoxy)isocoumarin], in that order: 1720 M⁻¹ s⁻¹, above 390000 M⁻¹ s⁻¹ and 450 M⁻¹ s⁻¹.
In the case of `CC(=O)Nc1ccc2c(Cl)c(OCCCBr)oc(=O)c2c1` [7-acetylamino-4-chloro-3-(3-bromopropoxy)isocoumarin], the kinact/KI at chymotrypsin (setting [6]) worked out at 3980 M⁻¹ s⁻¹; in assay [1] (setting [3]), 24400 M⁻¹ s⁻¹; in assay [2] (setting [4]), 24 M⁻¹ s⁻¹; at cathepsin G (setting [5]), 170 M⁻¹ s⁻¹.
As for `Nc1ccc2c(Cl)c(OCCBr)oc(=O)c2c1` [7-amino-4-chloro-3-(2-bromoethoxy)isocoumarin], the kinact/KI on chymotrypsin (setting [6]) worked out at 1160 M⁻¹ s⁻¹; in assay [1] (pH 7.5, Table XVI, progress curve method) it was 200000 M⁻¹ s⁻¹; in assay [2] (setting [4]), 1000 M⁻¹ s⁻¹; at cathepsin G (setting [5]), 410 M⁻¹ s⁻¹.
For `CC(CBr)Oc1oc(=O)c2cc(N)ccc2c1Cl` (stereo not shown) [7-amino-4-chloro-3-(2-bromoisopropoxy)isocoumarin], the kinact/KI was 320 M⁻¹ s⁻¹ on chymotrypsin (setting [6]), 24000 M⁻¹ s⁻¹ in assay [1] (setting [3]), 62 M⁻¹ s⁻¹ in assay [2] (setting [4]) and 150 M⁻¹ s⁻¹ at cathepsin G (setting [5]).
For `Nc1ccc2c(Cl)c(OCCCBr)oc(=O)c2c1` [7-amino-4-chloro-3-(3-bromopropoxy)isocoumarin], in that order: 790 M⁻¹ s⁻¹, 4000 M⁻¹ s⁻¹, 10 M⁻¹ s⁻¹ and 210 M⁻¹ s⁻¹.
For `CCCOc1oc(=O)c2cc(N)ccc2c1Cl` [7-amino-4-chloro-3-propoxyisocoumarin], in that order: 375 M⁻¹ s⁻¹, 390 M⁻¹ s⁻¹, 4.3 M⁻¹ s⁻¹ and 61 M⁻¹ s⁻¹.
In the case of `O=C(NCc1ccccc1)Nc1ccc2c(Cl)c(OCCBr)oc(=O)c2c1` [7-benzylcarbamoylamino-4-chloro-3-(2-bromoethoxy)isocoumarin], the kinact/KI on chymotrypsin (setting [6]) was determined as 890 M⁻¹ s⁻¹; in assay [1] (setting [9]), 480000 M⁻¹ s⁻¹; in assay [2] (setting [4]) it was 3010 M⁻¹ s⁻¹. Also, the percentage of inhibition on cathepsin G (Table XVI) came out at 23%.
On to `O=C(NCc1ccccc1)Nc1ccc2c(Cl)c(OCCCBr)oc(=O)c2c1` [7-benzylcarbamoylamino-4-chloro-3-(3-bromopropoxy)isocoumarin], for which the kinact/KI stood at 440 M⁻¹ s⁻¹ at chymotrypsin (setting [6]), 15600 M⁻¹ s⁻¹ in assay [1] (setting [3]) and 13 M⁻¹ s⁻¹ in assay [2] (setting [4]). On cathepsin G (Table XVI), the percentage of inhibition worked out at 21%.
In the case of `CCCOc1oc(=O)c2cc(NC(=O)CCc3ccccc3)ccc2c1Cl` [7-dihydrocinnamoylamino-4-chloro-3-propyloxyisocoumarin], the kinact/KI on chymotrypsin (setting [10]) is 12000 M⁻¹ s⁻¹; in assay [1] (setting [11]), above 250000 M⁻¹ s⁻¹; in assay [2] (setting [12]), 220 M⁻¹ s⁻¹; at cathepsin G (setting [13]) it was 20 M⁻¹ s⁻¹.
For `CCCOc1oc(=O)c2cc(NC(=O)OCC)ccc2c1Cl` [7-ethoxycarbonylamino-4-chloro-3-propyloxyisocoumarin], in that order: 5200 M⁻¹ s⁻¹, above 181000 M⁻¹ s⁻¹, 1600 M⁻¹ s⁻¹ and 138 M⁻¹ s⁻¹.
For `CCCOc1oc(=O)c2cc(NC(=O)NCC)ccc2c1Cl` [7-ethylcarbamoylamino-4-chloro-3-propyloxyisocoumarin], in that order: 120 M⁻¹ s⁻¹, above 276000 M⁻¹ s⁻¹, 80 M⁻¹ s⁻¹ and 166 M⁻¹ s⁻¹.
`CC(C)NC(=O)Nc1ccc2c(Cl)c(OCCBr)oc(=O)c2c1` [7-isopropylcarbamoylamino-4-chloro-3-(2-bromoethoxy)isocoumarin]: the kinact/KI was 1340 M⁻¹ s⁻¹ at chymotrypsin (setting [7]); 380 M⁻¹ s⁻¹ on chymotrypsin (setting [8]); 646000 M⁻¹ s⁻¹ in assay [1] (setting [9]); 4470 M⁻¹ s⁻¹ in assay [2] (setting [4]); 77 M⁻¹ s⁻¹ on cathepsin G (setting [5]).
As for `O=C(Nc1ccc2c(Cl)c(OCCBr)oc(=O)c2c1)Nc1cccc2ccccc12` [7-naphthylcarbamoylamino-4-chloro-3-(2-bromoethoxy)isocoumarin], the values for the kinact/KI (at chymotrypsin (setting [6]); in assay [1] (setting [9]); in assay [2] (setting [4])) were 80 M⁻¹ s⁻¹, 390000 M⁻¹ s⁻¹ and 76 M⁻¹ s⁻¹, respectively. At cathepsin G (Table XVI), this compound registered a percentage of inhibition of 22%.
With `CC(CBr)Oc1oc(=O)c2cc([N+](=O)[O-])ccc2c1Cl` (stereo not shown) [7-nitro-4-chloro-3-(2-bromoisopropoxy)isocoumarin], the kinact/KI on chymotrypsin (pH 7.5, Table XVI, second order, equimolar inhibitor and enzyme, read-out: kobs/[I]) is 200000 M⁻¹ s⁻¹; in assay [2] (setting [4]) it was 1060 M⁻¹ s⁻¹; at cathepsin G (setting [5]), 1660 M⁻¹ s⁻¹.
`CC(C)(C)CC(=O)Nc1ccc2c(Cl)c(OCCBr)oc(=O)c2c1` [7-t-butylacetylamino-4-chloro-3-(2-bromoethoxy)isocoumarin]: the values for the kinact/KI (on chymotrypsin (setting [6]); in assay [2] (setting [4]); at cathepsin G (setting [5])) were 1070 M⁻¹ s⁻¹, 3650 M⁻¹ s⁻¹ and 240 M⁻¹ s⁻¹, respectively.
For the compound `CC(C)(C)NC(=O)Nc1ccc2c(Cl)c(OCCBr)oc(=O)c2c1` [7-t-butylcarbamoylamino-4-chloro-3-(2-bromoethoxy)isocoumarin], the kinact/KI on chymotrypsin (setting [6]) turned out to be 320 M⁻¹ s⁻¹; in assay [2] (setting [4]), 6600 M⁻¹ s⁻¹; on cathepsin G (setting [5]), 56 M⁻¹ s⁻¹.
